From patent US20100261711A1, “SELECTIVE ANTICONVULSANT AGENTS AND THEIR USES” (WiSys Technology Foundation, priority 2009, published 2010)
Read-outs that look alike come from different tables or passages of the source. Marks after values point to notes of the source that are not given here.

Tests used:
Assay type in all cases: in vivo
MES-induced seizures [1] = assay: Maximal electroshock test (MES), mice
[2] = test system: Metrazol-induced clonic seizures; assay: Subcutaneous Metrazol test (scMet), mice
[3] = test system: minimal muscular or neurological impairment; assay: Toxicity (TOX), rotorod procedure, mice
MES-induced seizures [4] = assay: Maximal electroshock test (MES), rats
Experimental: The benzodiazepine derivative compounds selective for GABAa receptor subunits were tested for the ability to suppress seizures in several standard rat and mouse models of epilepsy. […] The standard models incorporated into anticonvulsant screening include the maximal electroshock test (MES), the subcutaneous Metrazol test (scMet), and evaluations of toxicity (TOX). The data for each condition is presented as a ratio of either the number of animals protected or toxic (loss of locomotor activity) over the number of animals tested at a given time point and dose.
The MES is a model for generalized tonic-clonic seizures and provides an indication of a compound's ability to prevent seizure spread when all neuronal circuits in the brain are maximally active. These seizures are highly reproducible and are electrophysiologically consistent with human seizures. For all tests based on MES convulsions, 60 Hz of alternating current (50 mA in mice, 150 in rats) is delivered for by corneal electrodes which have been primed with an electrolyte solution containing an anesthetic agent (0.5% tetracaine HCL). For Test 1, mice are tested at various intervals following doses of 30, 100 and 300 mg/kg of test compound given by ip injection of a volume of 0.01 mL/g. In Test 2, rats are tested after a dose of 30 mg/kg (po) in a volume of 0.04 mL/g. Test 8 uses varying doses administered via i.p. injection, again in a volume of 0.04 ml/g. […] In Antiepileptic Drugs, Levy, R. H. M., Meldrum, B. S., Eds.; Raven Press: New York, pp 99-110, 1995b.).

[5] = test system: minimal motor deficit (ataxia, abnormal gait); assay: Toxicity (TOX), minimal motor deficit, rats; details: for TOX (Rotorod Test), animals toxic/tested: Rat IP, 100 mg/kg
kindled motor seizure = assay: Hippocampus kindling screen; details: Rats IP, 30 mg/kg after 1.0 h
Text: The hippocampus kindling screen is a useful adjunct to the traditional MES and scMet tests for identification of a substance potential utility for treating complex partial seizures. […] No toxic effects were observed as indicated by the lack of motor impairment on the rats tested.

6 Hz psychomotor seizure = assay: Minimal clonic seizure (6 Hz) test; details: Mice IP; for 6 Hz, animals protected/tested: 100 m/k; for ED50: Mus musculus, ip
In short: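 Mice dosed ip with test compound before 6 Hz corneal-type electrical stimulation lasting 3 s. Protection scored as absence of minimal clonic phase and stereotyped automatistic behaviour seen in untreated animals.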

[6] = Mice, 50 mg/kg PO (Mice IP), 0.5 hr
[7] = Mice, 50 mg/kg PO (Mice IP), 4.0 hr

C#Cc1ccc2c(c1)C(c1ccccc1F)=NCc1c(C(=O)OCC)ncn1-2 [JY-XHe-053 (15), Ethyl-8-acetyleno-6-(2′-fluorophenyl)-4H-benzo[f]imidazo[1,5-a][1,4]diazepine-3-carboxylate]
MES, animals protected/tested (MES-induced seizures [1]; Mice IP, 100 mg/kg, 0.5 hr): 0/3 | MES, animals protected/tested (MES-induced seizures [1]; Mice IP, 100 mg/kg, 4.0 hr): 0/3 | MES, animals protected/tested (MES-induced seizures [1]; [6]): 1/4 | MES, animals protected/tested (MES-induced seizures [1]; [7]): 0/4 | ED50 (MES-induced seizures [1]; Mus musculus, Mice IP): > 200 mg/kg | scMet, animals protected/tested ([2]; Mice IP, 100 mg/kg, 0.5 hr): 5/5 | scMet, animals protected/tested ([2]; Mice IP, 100 mg/kg, 4.0 hr): 0/1 | scMet, animals protected/tested [2, 6]: 3/4 | scMet, animals protected/tested [2, 7]: 4/4 | ED50 ([2]; Mus musculus, Mice IP): 8.87 mg/kg | TOX (Rotorod Test), animals toxic/tested ([3]; Mice IP, 100 mg/kg, 0.5 hr): 6/8 | TOX (Rotorod Test), animals toxic/tested ([3]; Mice IP, 100 mg/kg, 4.0 hr): 0/4 | TD50 TOX ([3]; Mice IP, rotorod): > 400 mg/kg | TOX (Rotorod Test), animals toxic/tested [3, 6]: 0/4 | TOX (Rotorod Test), animals toxic/tested [3, 7]: 0/4 | ED50 (MES-induced seizures [4]; Rat IP): > 30 mg/kg | ED50 (MES-induced seizures [4]; Rat PO): > 250 mg/kg | MES, animals protected/tested (MES-induced seizures [4]; Rat PO, 30 mg/kg, 0.5 h): 0/4 | MES, animals protected/tested (MES-induced seizures [4]; Rat PO, 30 mg/kg, 1.0 h): 0/4 | MES, animals protected/tested (MES-induced seizures [4]; Rat PO, 30 mg/kg, 2.0 h): 0/4 | MES, animals protected/tested (MES-induced seizures [4]; Rat PO, 30 mg/kg, 4.0 h): 1/4 | MES, animals protected/tested (MES-induced seizures [4]; Rat PO, 30 mg/kg, 6.0 h): 0/4 | TOX (Rotorod Test), animals toxic/tested ([5]; 0.5 hr): 0/4 | TOX (Rotorod Test), animals toxic/tested ([5]; 4.0 hr): 0/4 | Tox, animals toxic/tested ([5]; Rat PO, 40 mg/kg, 4.0 h): 0/4^e | Tox, animals toxic/tested ([5]; Rat PO, 40 mg/kg, 6.0 h): 0/4^e | Tox, animals toxic/tested ([5]; Rat PO, 50 mg/kg, 0.5 h): 0/4 | Tox, animals toxic/tested ([5]; Rat PO, 50 mg/kg, 1.0 h): 0/4 | Tox, animals toxic/tested ([5]; Rat PO, 50 mg/kg, 2.0 h): 0/4 | Tox, animals toxic/tested ([5]; Rat PO, 50 mg/kg, 4.0 h): 0/4 | Tox, animals toxic/tested ([5]; Rat PO, 50 mg/kg, […]): 0/4 | TD50 TOX ([5]; Rat PO, abnormal gait): >500 mg/kg | motor impairment / sedative or locomotor effects ([5]; rats, oral administration, up to 500 mg/kg): No motor impairment | Tox, animals toxic/tested (kindled motor seizure): 0/2^b | Afterdischarge Duration, Drug (Low-High) (kindled motor seizure; pre-drug 30-41): 38- s | 6 Hz, animals protected/tested (6 Hz psychomotor seizure; 44 mA, 0.5 hr): 4/4 | 6 Hz, animals protected/tested (6 Hz psychomotor seizure; 44 mA, 1.0 hr): 2/4 | 6 Hz, animals protected/tested (6 Hz psychomotor seizure; 44 mA, 2.0 hr): 2/4 | 6 Hz, animals protected/tested (6 Hz psychomotor seizure; 44 mA, 4 hr): 0/4 | 6 Hz, animals protected/tested (6 Hz psychomotor seizure; 44 mA, […]): 2/4 | ED50 (6 Hz psychomotor seizure; 32 mA, read-out: ED50 32 mA (6 Hz test)): 39.2 mg/kg

C#Cc1ccc2c(c1)C(c1ccccc1)=N[C@H](C)c1nnc(C)n1-2 [SH-TR-CH3 (146), (4R)-8-Ethynyl-1,4-dimethyl-6-phenyl-4H-benzo[f][1,2,4]triazolo[4,3-a][1,4]diazepine]
MES, animals protected/tested (MES-induced seizures [1]; Mice IP, 30 mg/kg, 0.5 Hr): 0/1 | MES, animals protected/tested (MES-induced seizures [1]; Mice IP, 30 mg/kg, 4.0 Hr): 0/1 | MES, animals protected/tested (MES-induced seizures [1]; Mice IP, 100 mg/kg, 0.5 hr): 0/3 | MES, animals protected/tested (MES-induced seizures [1]; Mice IP, 100 mg/kg, 4.0 hr): 0/3 | MES, animals protected/tested (MES-induced seizures [1]; Mice IP, 300 mg/kg, 0.5 Hr): 0/1 | MES, animals protected/tested (MES-induced seizures [1]; Mice IP, 300 mg/kg, 4.0 Hr): 0/1 | scMet, animals protected/tested ([2]; Mice IP, 30 mg/kg, 0.5 Hr): 0/1 | scMet, animals protected/tested ([2]; Mice IP, 30 mg/kg, 4.0 Hr): 0/1 | scMet, animals protected/tested ([2]; Mice IP, 100 mg/kg, 0.5 hr): 0/1 | scMet, animals protected/tested ([2]; Mice IP, 100 mg/kg, 4.0 hr): 0/1 | scMet, animals protected/tested ([2]; Mice IP, 300 mg/kg, 0.5 Hr): 1/1 | scMet, animals protected/tested ([2]; Mice IP, 300 mg/kg, 4.0 Hr): 0/1 | TOX (Rotorod Test), animals toxic/tested ([3]; Mice IP, 30 mg/kg, 0.5 Hr): 0/4 | TOX (Rotorod Test), animals toxic/tested ([3]; Mice IP, 30 mg/kg, 4.0 Hr): 0/2 | TOX (Rotorod Test), animals toxic/tested ([3]; Mice IP, 100 mg/kg, 0.5 hr): 1/8 | TOX (Rotorod Test), animals toxic/tested ([3]; Mice IP, 100 mg/kg, 4.0 hr): 0/4 | TOX (Rotorod Test), animals toxic/tested ([3]; Mice IP, 300 mg/kg, 0.5 Hr): 1/4 | TOX (Rotorod Test), animals toxic/tested ([3]; Mice IP, 300 mg/kg, 4.0 Hr): 0/2 | MES, animals protected/tested (MES-induced seizures [4]; Rat PO, 50 mg/kg, 0.5 h): 0/4 | MES, animals protected/tested (MES-induced seizures [4]; Rat PO, 50 mg/kg, 1.0 h): 0/4 | MES, animals protected/tested (MES-induced seizures [4]; Rat PO, 50 mg/kg, 2.0 h): 0/4 | MES, animals protected/tested (MES-induced seizures [4]; Rat PO, 50 mg/kg, 4.0 h): 0/4 | MES, animals protected/tested (MES-induced seizures [4]; Rat PO, 50 mg/kg, […]): 0/4 | Tox, animals toxic/tested ([5]; Rat PO, 50 mg/kg, 0.5 h): 0/4 | Tox, animals toxic/tested ([5]; Rat PO, 50 mg/kg, 1.0 h): 1/4 | Tox, animals toxic/tested ([5]; Rat PO, 50 mg/kg, 2.0 h): 1/4 | Tox, animals toxic/tested ([5]; Rat PO, 50 mg/kg, 4.0 h): 0/4 | Tox, animals toxic/tested ([5]; Rat PO, 50 mg/kg, […]): 0/4 | 6 Hz Time to Peak Effect, protected/tested (6 Hz psychomotor seizure; 7 mg/kg, 32 mA, 0.25 Hr): 4/4 | 6 Hz Time to Peak Effect, protected/tested (6 Hz psychomotor seizure; 7 mg/kg, 32 mA, 0.5 Hr): 4/4 | 6 Hz Time to Peak Effect, protected/tested (6 Hz psychomotor seizure; 7 mg/kg, 32 mA, 1.0 Hr): 2/4 | 6 Hz Time to Peak Effect, protected/tested (6 Hz psychomotor seizure; 15 mg/kg, 32 mA, 0.25 Hr): 4/4 | 6 Hz Time to Peak Effect, protected/tested (6 Hz psychomotor seizure; 15 mg/kg, 32 mA, 0.5 Hr): 4/4^14 | 6 Hz Time to Peak Effect, protected/tested (6 Hz psychomotor seizure; 15 mg/kg, 32 mA, 1.0 Hr): 4/4^14 | 6 Hz Time to Peak Effect, protected/tested (6 Hz psychomotor seizure; 15 mg/kg, 32 mA, 2.0 Hr): 2/4 | 6 Hz Time to Peak Effect, protected/tested (6 Hz psychomotor seizure; 15 mg/kg, 32 mA, 4.0 Hr): 1/4 | 6 Hz Time to Peak Effect, protected/tested (6 Hz psychomotor seizure; 50 mg/kg, 32 mA, 0.25 Hr): 4/4^14 | 6 Hz Time to Peak Effect, protected/tested (6 Hz psychomotor seizure; 50 mg/kg, 32 mA, 0.5 Hr): 4/4^14 | 6 Hz Time to Peak Effect, protected/tested (6 Hz psychomotor seizure; 100 mg/kg, 32 mA, 0.25 Hr): 4/4^14 | 6 Hz Time to Peak Effect, protected/tested (6 Hz psychomotor seizure; 100 mg/kg, 32 mA, 0.5 Hr): 4/4^14 | 6 Hz Time to Peak Effect, protected/tested (6 Hz psychomotor seizure; 100 mg/kg, 32 mA, 1.0 Hr): 4/4^14 | 6 Hz Time to Peak Effect, protected/tested (6 Hz psychomotor seizure; 100 mg/kg, 32 mA, 2.0 Hr): 4/4^14 | 6 Hz Time to Peak Effect, protected/tested (6 Hz psychomotor seizure; 100 mg/kg, 32 mA, 4.0 Hr): 4/4^14 | 6 Hz ED50 Biological Response, protected/tested (6 Hz psychomotor seizure; 32 mA, 0.25 Hr, 1.75 mg/kg): 4/8 | 6 Hz ED50 Biological Response, protected/tested (6 Hz psychomotor seizure; 32 mA, 0.25 Hr, 7 mg/kg): 8/8 | 6 Hz ED50 Biological Response, protected/tested (6 Hz psychomotor seizure; 44 mA, 0.25 Hr, 5 mg/kg): 5/8 | 6 Hz ED50 Biological Response, protected/tested (6 Hz psychomotor seizure; 44 mA, 0.25 Hr, 10 mg/kg): 8/8 | ED50 (6 Hz psychomotor seizure; […], 32 mA, 0.25 Hr, read-out: ED50 (6 Hz)): 2.08 mg/kg | ED50 (6 Hz psychomotor seizure; […], 44 mA, 0.25 Hr, read-out: ED50 (6 Hz)): 4.55 mg/kg
